Values after ≈ are worked out from the molar mass of the structure shown.
How the values were obtained:
Assay type in all cases: cell-based
[1] = test system: Pseudomonas aeruginosa (Pae, PAWT, ATCC #27853); experiment: MIC against Pseudomonas aeruginosa reference strain PAWT; settings: Pseudomonas aeruginosa wild type PAWT
Excerpt: (§1) For evaluation of efficacy, we assembled panels of representative gram-negative pathogens, including Pseudomonas aeruginosa (Pae, PAWT, ATCC #27853), Klebsiella pneumoniae (Kpn, KPWT, ATCC #700603), Acinetobacter baumannii (Aba, ABWT, ATCC #BAA-747) and Escherichia coli (Eco, ECWT, ATCC #25922). These reference strains are useful indicator organisms to characterize compound activity against bacteria from a pathogenic genus in the absence of multiple resistance mechanisms. Two strains (PAWT and ECWT) are reference strains cited within the Clinical and Laboratory Standards Institute (CLSI) Standards for susceptibility testing by Minimum Inhibitory Concentration (MIC) (SXPS2) and are well suited for quality control. ABWT and ECWT are widely susceptible to aminoglycoside antibiotics, whereas PAWT and KPWT harbor a single aminoglycoside-modifying enzyme (AGME) that targets 4,6-substituted-2-deoxystreptamine AGs. […]

[2] = test system: Klebsiella pneumoniae (Kpn, KPWT, ATCC #700603); experiment: MIC against Klebsiella pneumoniae reference strain KPWT; settings: Klebsiella pneumonia KPWT, Table 5 (unit not given); in µg/mL
Excerpt: as §1, with “These reference strains are useful indicator organisms to characterize compound activity against bacteria from a pathogenic genus in the absence of multiple resistance mechanisms.” left out

[3] = test system: Pseudomonas aeruginosa PR1 (clinical isolate with intermediate aminoglycoside resistance); experiment: MIC against Pseudomonas aeruginosa clinical isolate PR1; settings: Pseudomonas aeruginosa resistant strain PR1
Excerpt: (§2) Pseudomonas aeruginosa is a prominent nosocomial pathogen. In addition to intrinsic antibiotic resistance to several antibiotics, Pseudomonas has acquired multiple additional mechanisms of resistance. As a result, therapeutic options for the treatment of infections caused by Pseudomonas aeruginosa are limited. We acquired clinical isolates of Pseudomonas aeruginosa (Micromyx LLC, Kalamazoo, Mich.), and used this panel to test compounds for Pseudomonicidal activity. […] For each strain and antibiotic, the mechanism(s) of resistance was inferred from the resistance profile. The presence of specific AGMEs was confirmed by colony PCR.

[4] = test system: Pseudomonas aeruginosa PR2 (clinical isolate with intermediate aminoglycoside resistance); experiment: MIC against Pseudomonas aeruginosa clinical isolate PR2; settings: Pseudomonas aeruginosa resistant strain PR2
Excerpt: as §2

[5] = test system: Pseudomonas aeruginosa PR3 (high-level, efflux-mediated, pan-aminoglycoside resistance); experiment: MIC against Pseudomonas aeruginosa clinical isolate PR3; settings: Pseudomonas aeruginosa resistant strain PR3
Excerpt: as §2

[6] = test system: Klebsiella pneumoniae KR1 (clinical isolate with intermediate aminoglycoside resistance); experiment: MIC against Klebsiella pneumoniae clinical isolate KR1; settings: Klebsiella pneumonia KR1; in µg/mL
Excerpt: (§3) Klebsiella pneumoniae (Kpn) and Escherichia coli (Eco) are gram-negative (like Pae), enteric pathogens with increasing clinical relevance. Many clinical isolates of Kpn and Eco harbor extended-spectrum beta-lactamases and are no longer sensitive to most beta-lactam antibiotics. We acquired clinical isolates of Klebsiella pneumoniae and Escherichia coli (Micromyx LLC, Kalamazoo, Mich.) and used this panel to test compounds for anti-enteric activity.

[7] = test system: Klebsiella pneumoniae KR2 (clinical isolate with intermediate aminoglycoside resistance); experiment: MIC against Klebsiella pneumoniae clinical isolate KR2; settings: Klebsiella pneumonia KR2
Excerpt: as §3

[8] = test system: Klebsiella pneumoniae KR3 (clinical isolate possessing high-level aminoglycoside resistance); experiment: MIC against Klebsiella pneumoniae clinical isolate KR3; settings: Klebsiella pneumonia KR3; in µg/mL
Excerpt: as §3

[9] = test system: Acinetobacter baumannii (Aba, ABWT, ATCC #BAA-747); experiment: MIC against Acinetobacter baumannii reference strain ABWT
Excerpt: as §1

[10] = test system: more than fifty resistant contemporary clinical isolates of Pseudomonas aeruginosa; experiment: MIC90 against panel of resistant clinical isolates of Pseudomonas aeruginosa
Excerpt: To assess this, a panel of more than fifty resistant contemporary clinical isolates of Pseudomonas aeruginosa were obtained from multiple sources including JMI Laboratories (North Liberty, Iowa), Pfizer (Groton, Conn.), Micromyx (Kalamazoo, Mich.), Dr. J. Chow (Wayne State University). Strains were characterized for resistance to a wide variety of classes of antibiotics including aminoglycosides, β-lactams and fluoroquinolones. […] This reflects the difficulty in treating clinical Pseudomonas aeruginosa infections. […] Using this stringent panel, we tested a subset of compounds of the invention (Table 4).

[11] = test system: fifty resistant contemporary clinical isolates of Klebsiella pneumoniae; experiment: MIC90 against panel of resistant clinical isolates of Klebsiella pneumoniae; settings: stringent panel of resistant clinical isolates, Table 5
Excerpt: Using this stringent Klebsiella pneumoniae panel, we tested a subset of compounds of the invention.

[12] = test system: panel of E. coli strains; experiment: MIC90 against a panel of E. coli strains; settings: in µg/mL
[13] = test system: Acinetobacter baumannii AB1; experiment: MIC against Acinetobacter baumannii clinical isolate AB1
Excerpt: (§4) Acinetobacter baumannii is another clinically important and very challenging gram negative pathogen. Members of the Acinetobacter genus, including baumannii, have a remarkable ability to upregulate and acquire resistance determinants. Coupled with its ability to survive for prolonged periods in a hospital environment, A. baumannii is an emerging threat for healthcare institutions globally. We acquired clinical isolates of Acinetobacter baumannii and used this panel to test compounds for anti-Acinetobacter activity. We first tested reference AGs against our panel of Aba strains.

[14] = test system: Acinetobacter baumannii AB2; experiment: MIC against Acinetobacter baumannii clinical isolate AB2
Excerpt: as §4

[15] = test system: Acinetobacter baumannii AB3; experiment: MIC against Acinetobacter baumannii clinical isolate AB3
Excerpt: as §4

[16] = test system: fifty resistant contemporary clinical isolates of Acinetobacter baumannii; experiment: MIC90 against panel of resistant clinical isolates of Acinetobacter baumannii
Excerpt: As in the case of Pseudomonas aeruginosa and Klebsiella pneumoniae, we considered whether the SAR observed against select Acinetobacter baumannii strains 1, 2 or 3 was indicative of general potency. […] Using this stringent Acinetobacter baumannii panel, we tested a subset of compounds of the invention.

Row | Structure (SMILES) | MIC PAWT [1] [µg/mL] | MIC KPWT [2] | MIC PR1 [3] [µg/mL] | MIC PR2 [4] [µg/mL] | MIC PR3 [5] [µg/mL] | MIC KR1 [6] | MIC KR2 [7] | MIC KR3 [8] | MIC ABWT [9] [µg/mL] | MIC90 Pseudomonas aeruginosa [10] [µg/mL] | MIC90 Klebsiella pneumonia [11] [µg/mL] | MIC90 E. coli [12] | MIC AB1 [13] [µg/mL] | MIC AB2 [14] [µg/mL] | MIC AB3 [15] [µg/mL] | MIC90 Acinetobacter baumannii [16] [µg/mL]
1 | NCC[C@H](O)C(=O)N[C@@H]1C[C@H](N)[C@@H](O[C@H]2O[C@H](CN)[C@@H](O)[C@H](O)[C@H]2O)[C@@H](F)[C@H]1O[C@H]1O[C@H](CNC2CC2)[C@@H](O)[C@H](N)[C@H]1O [SXP1212-56″-16] | 1 (≈ 1.6 µM) | <0.25 | 2 to 8 | <0.25 to 4 | 32 (≈ 51.1 µM) | 0.5-1 | 1 | 16 | – | – | – | – | – | – | – | –
2 | NCCC(O)C(=O)NC1CC(N)C(OC2OC(CN)C(O)CC2N)C(F)C1OC1OC(CNCC(O)CN)C(O)C(N)C1O (stereo not drawn) [SXP 2524] | 0.25 (≈ 0.389 µM) | 0.5 | 4 (≈ 6.22 µM) | 0.5 (≈ 0.778 µM) | 8 (≈ 12.4 µM) | 0.5-1 | 0.5 | 0.5-1 | 0.5 (≈ 0.778 µM) | 4 (≈ 6.22 µM) | 1 (≈ 1.56 µM) | 2-4 | 2 (≈ 3.11 µM) | 1 (≈ 1.56 µM) | 8 (≈ 12.4 µM) | 2 (≈ 3.11 µM)
